Target: CpomOrco + OR6a (Cydia pomonella, UniProt H9A5M1)
Experiment: Calcium imaging of HEK293T cells expressing CpomOrco + OR6a
Format: cell-based
Experimental: HEK293T cells were grown in HEK cell media [Dulbecco’s modified Eagle’s medium containing 10% fetal bovine serum (MP Biomedicals, Solon, OH, USA), 2.0 mM L-glutamine, and 100 μg/mL Penicillin/Streptomycin (Invitrogen)] at 37 °C and 5% CO2. To test transient expression of CpomORs for calcium imaging or patch-clamp recording experiments, 35-mm petri dishes containing semi-confluent HEK293T cells were transiently transfected. To transfect cells with CpomOrco, we used 1.0 μg of pcDNA5/TO/CpomOrco DNA. In order to promote expression of the OR[51], we used double aliquots for pcDNA5/TO/CpomOR DNAs (2.0 μg), combined with 1.0 μg of pcDNA5/TO/CpomOrco for co-transfections (CpomOrco + ORs). To report expression for calcium imaging experiments, 1.0 μg of a separate plasmid DNA [pEBFP2-Nuc, a gift from Robert Campbell (Addgene plasmid # 14893[52])] carrying the coding sequence for a blue fluorescent protein (BFP) was used. In patch-clamp recordings, 1.0 μg of a separate plasmid DNA (pXOOM, Clontech) carrying the coding sequence for a green fluorescent protein (GFP) was used to report expression. In order to report candidate OR-expressing cells, expression of both fluorescent reporter genes was under the regulation of the same promoter for CpomOR genes (CMV). Transfection DNAs were dissolved in 100 μL sterile DMEM, mixed with 3.0 μL Calfectin (SignaGen, Rockville, MD, USA) following the recommended protocol. To estimate transfection efficiency, a parallel transfection was conducted using the positive control vector pcDNA5/TO/LACZ (Invitrogen) and staining with 0.1% XGal[53].
Transfections were conducted overnight. HEK cell media was replaced with 1.0 mL fresh media to incubate cells at 37 °C for up to 6 h, at which point part of the cell culture was spread in the middle of a 35-mm plate as individual cells or small clusters. After 12 h of incubation at 37 °C and 5% CO2, cells were rinsed at the sides with 2.0 mL fresh HEK media. Cells were allowed to recover for at least 1 h prior to calcium imaging.
To test activation of olfactory receptors, CpomOrco or CpomOrco + ORs HEK293T cells were incubated for 1 h at room temperature in 0.5–1.0 mL HEK cell Ringer (mM: 140 NaCl, 5.0 KCl, 1.0 CaCl2, 1.0 MgCl2, 10 HEPES, 10 Glucose, pH 7.5) containing the fluorescent calcium indicator Fluo-4AM (Invitrogen) at 5–15 μM prepared with 0.2–0.06% Pluronic F-127 (Invitrogen). After incubation, the buffer was removed and cells were rinsed with 4.0 mL fresh HEK Ca^++ Ringer (mM: 140 NaCl, 2.0 CaCl2, 10 HEPES, pH 7.5), and placed on the stage of an inverted microscope (Olympus IX-71, Olympus Corp., Tokyo, Japan) equipped with a cooled CCD camera (ORCA R2, Hamamatsu, Hamamatsu City, Japan). Cells were continuously superfused with Ca^++ Ringer using two gravity fed perfusion contours. The […] contour washing the cells (~250 μL/min) was switched rapidly to the stimulus contour using a multi-channel rapid solution changer (RSC-160, Bio-Logic, Claix, France) under the software control of Clampex 9 (Molecular Devices, Sunnyvale, CA, USA).
Fluorescence imaging was performed using Imaging Workbench 6 software (INDEC BioSystems, Santa Clara, CA, USA). Each cell was assigned a region of interest (ROI) and changes in fluorescence intensity within each ROI were measured and expressed as the fractional change in fluorescence intensity (dF) or in some cases as dF/F0 where F0 is the basal fluorescence level before agonist application. […] Continuous traces of multiple responses were compensated for slow drift of the baseline fluorescence when necessary. All recordings were performed at room temperature (22–25 °C).
HEK293T cells expressing CpomOrco + OR6a, CpomOrco + OR3 and CpomOrco + OR1 were stimulated with an array of compounds such as: potential insect pheromone compounds and plant volatile synergists active on the olfactory system and behaviour of the codling moth[1][25], non-host plant volatiles active on other tortricids, the methyl pear-ester[33] […]

Sequence of CpomOrco + OR6a (H9A5M1 entry or part of it): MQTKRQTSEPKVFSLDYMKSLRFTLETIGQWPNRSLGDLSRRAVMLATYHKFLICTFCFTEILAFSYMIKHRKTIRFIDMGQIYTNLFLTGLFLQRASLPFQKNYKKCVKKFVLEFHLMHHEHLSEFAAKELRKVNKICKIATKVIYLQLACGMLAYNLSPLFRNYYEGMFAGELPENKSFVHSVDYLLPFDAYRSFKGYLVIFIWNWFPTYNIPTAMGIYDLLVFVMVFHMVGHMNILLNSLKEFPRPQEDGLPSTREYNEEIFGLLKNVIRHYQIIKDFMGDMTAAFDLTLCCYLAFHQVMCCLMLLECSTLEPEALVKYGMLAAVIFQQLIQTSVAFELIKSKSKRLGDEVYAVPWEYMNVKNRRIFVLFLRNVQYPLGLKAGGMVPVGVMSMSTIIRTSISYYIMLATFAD
Sequence of CpomOrco + OR6a (H9A5M2 entry or part of it, further chain): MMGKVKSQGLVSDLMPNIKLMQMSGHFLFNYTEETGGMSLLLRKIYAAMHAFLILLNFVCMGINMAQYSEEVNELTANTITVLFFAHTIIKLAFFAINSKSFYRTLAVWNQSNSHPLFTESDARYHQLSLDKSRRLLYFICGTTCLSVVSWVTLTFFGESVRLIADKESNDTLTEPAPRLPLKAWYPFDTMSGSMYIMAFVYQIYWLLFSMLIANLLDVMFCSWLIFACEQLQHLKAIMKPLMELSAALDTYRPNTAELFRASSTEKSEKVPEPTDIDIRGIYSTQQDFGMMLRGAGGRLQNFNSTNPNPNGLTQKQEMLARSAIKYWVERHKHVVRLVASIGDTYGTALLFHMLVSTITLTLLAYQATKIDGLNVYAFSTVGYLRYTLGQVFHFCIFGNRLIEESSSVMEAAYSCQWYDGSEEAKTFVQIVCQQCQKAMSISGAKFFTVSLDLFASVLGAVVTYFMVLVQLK

## CCn1c(SCC(=O)Nc2ccc(C(C)C)cc2)nnc1-c1ccncc1 [VUAA3, acetamide,2-[[4-ethyl-5-(4-pyridinyl)-4H-1,2,4-triazol-3-yl]thio]-N-[4-(1-methylethyl)phenyl]-]
100 μM, n = 70
  amplitude of the calcium response (mean of the maximum response ± SEM): 37.96 ± 20.98 dF
250 μM positive control, n = 68
  amplitude of the calcium response (mean of the maximum response ± SEM): 69.71 ± 27.29 dF

## C/C=C/C=C/CCCCCCCO [codlemone, (E,E)-8,10-dodecadien-1-ol]
50 μM, n = 70
  amplitude of the calcium response (mean of the maximum response ± SEM): 0.38 ± 1.84 dF
1500 μM, n = 68
  amplitude of the calcium response (mean of the maximum response ± SEM): 5.7 ± 3.64 dF

## C/C=C/C=C/CCCCCCCOC(C)=O [codlemone acetate, (E,E)-8,10-dodecadien-1-yl acetate]
50 μM, n = 70
  amplitude of the calcium response (mean of the maximum response ± SEM): 12.04 ± 8.17 dF
1500 μM, n = 68
  amplitude of the calcium response (mean of the maximum response ± SEM): 18.91 ± 10.31 dF
HEK-293T, vs 250 μM VUAA3, read-out: amplitude at saturating concentrations relative to the positive control amplitude
  Emax: ~27%
Calcium response normalized to 250 μM VUAA3
  EC50: 51.8 ± 13.2 µM
